Paper PMC3171603 (Bioorganic & medicinal chemistry letters, 2011)

Columns and labels:
[1] = Cytotoxicity: growth inhibition of uninfected TZM-bl cells; format: cell-based; conditions: human
HIV-1 NL4-3 = experiment: HIV-1 infectivity assay; format: cell-based; conditions: for anti-HIV activity: TZM-bl cells, statement in words

Row | EC50 (HIV-1 NL4-3; Human immunodeficiency virus 1, NL43, TZM-bl) [µM] | SMILES | CC50 [1] [µM] | anti-HIV activity (HIV-1 NL4-3)
1 | 0.12 | CCc1cc(=O)c2ccc3c(c2o1)[C@@H](OC(=O)C12CCC(C)(C(=O)O1)C2(C)C)[C@@H](OC(=O)C12CCC(C)(C(=O)O1)C2(C)C)C(C)(C)O3 (some centres unmarked) [Compound 2-Ethyl-DCP, 2-ethyl-DCP, reference compound] | 14.3 | 
2 |  | CCc1cc(=O)c2ccc3c(c2o1)[C@H](OC(=O)C12CCC(C)(C(=O)O1)C2(C)C)[C@H](OC(=O)C12CCC(C)(C(=O)O1)C2(C)C)[C@@H](C)S3 (some centres unmarked) [Compound 6b] |  | remarkably reduced or even completely abolished
3 |  | Cc1cc(=O)oc2c3c(ccc12)SC(C)(C)[C@H](OC(=O)[C@@]12CC[C@@](C)(C(=O)O1)C2(C)C)[C@@H]3OC(=O)[C@@]12CC[C@@](C)(C(=O)O1)C2(C)C [Compound 8a, 4-Methyl-1′-thia-DCK] | > 30.6 | 
4 |  | Cc1cc(=O)oc2c3c(ccc12)SC(C)(C)[C@@H](OC(=O)[C@@]12CC[C@@](C)(C(=O)O1)C2(C)C)[C@H]3OC(=O)[C@@]12CC[C@@](C)(C(=O)O1)C2(C)C [Compound 8b] |  | remarkably reduced or even completely abolished
